Source: publication PMC10016038, “Enhanced Endosomal Signaling and Desensitization of GLP-1R vs GIPR in Pancreatic Beta Cells” (Endocrinology, 2023)
Entries after “also recorded” stand apart in the source; their conditions may differ.

Tests used:
SNAP-tagged human GLP-1R = SNAP-tagged human GLP-1R (Homo sapiens, UniProt P43220); assay: DERET internalization assay, INS-1 832/3 SNAP-GLP-1R cells; format: cell-based; settings: non-cognate agonist GIP
SNAP-tagged human GIPR = assay: Colocalization with SNX27-GFP, SNAP-GIPR; format: cell-based; settings: 3 hours stimulation with 100 nM
GIPR-SmBiT = assay: Mini-G protein/β-arrestin 2 recruitment NanoBiT, GIPR; format: cell-based; settings: 100 nM GIP, n = 5
Source text: Here the SmBiT was cloned in frame at the C-terminus of the GLP-1R and the GIPR by substitution of the Tango sequence on FLAG-tagged GLP-1R-Tango or GIPR-Tango (a gift from Prof. Bryan Roth, University of North Carolina, USA; Addgene plasmids #66291 and #66294), respectively. Mini-Gs, mini-Gq, and mini-Gi plasmids, tagged at the N-terminus with LgBiT, were a gift from Prof. Nevin Lambert, Medical College of Georgia, USA. For β-arrestin 2 recruitment assays, β-arrestin 2 fused at the N-terminus to LgBiT (LgBiT-β-arrestin 2; Promega, plasmid no. CS1603B118) was chosen as it has previously been used successfully with other class B GPCRs. […]
All NanoBiT and NanoBRET readings were obtained in a Flexstation 3 plate reader. […] Readings were normalized to well baseline and then to average vehicle-induced signal to establish the agonist-induced effect. AUCs from response curves were calculated for each agonist concentration and fitted to four-parameter curves using Prism 9 (GraphPad).
Figure 5. […] (A) Kinetics of Gαs, Gαq, Gαi, and β-arrestin 2 recruitment to the GLP-1R assessed by NanoBiT complementation assay in INS-1 832/3 GLP-1R KO cells transiently expressing GLP-1R-SmBiT and the corresponding mini-G protein subtype or β-arrestin 2. […]

[1] = tested on: cAMP response in INS-1 832/3 cells; assay: cAMP HTRF assay; format: cell-based, rat; settings: 100 nM, log(Emax/EC50) in Fig. 7A, n = 5
Source text: Results were expressed as basal fold increase responses and fitted to 3-parameter curves using Prism 9 (GraphPad).
(§1) Figure 7. Functional analysis of GLP-1R vs GIPR signaling in beta cells. […] Data are mean ± SEM, compared by paired t tests; *P < .05; ns, nonsignificant.

[2] = tested on: cAMP response in mouse islet beta cells; assay: cAMP FRET assay, Pdx1-CreERT/CAMPER islets; format: cell-based; settings: 100 nM, n = 4
Procedure: Nondiabetic mice of both sexes were used for islet isolation. Briefly, pancreata were infused via the common bile duct with RPMI-1640 medium containing 1 mg/mL collagenase from Clostridium histolyticum (Nordmark Biochemicals), dissected, and incubated in a water bath at 37 °C for 10 minutes. Islets were subsequently washed and purified using a Histopaque gradient (Histopaque-1119, 11191, Sigma-Aldrich, and Histopaque-1083, 10831, Sigma-Aldrich). Isolated islets were allowed to recover overnight at 37 °C in 5% CO2 in RPMI-1640 supplemented with 10% FBS and 1% penicillin/streptomycin. […]
CAMPER reporter mice ([30]), with conditional expression of the cAMP fluorescence resonance energy transfer (FRET) biosensor ^TEPAC^VV ([31]), were purchased from Jackson Laboratory (Stock No: 032205) and crossed with Pdx1-Cre^ERT mice (in house) to generate mice with inducible ^TEPAC^VV expression from pancreatic beta cells, used to isolate islets for ex vivo cAMP FRET assays. […] Raw intensity traces for YFP and CFP fluorescence were extracted from whole islet ROIs using Fiji and YFP/CFP ratios calculated for each ROI and time point. Responses were plotted relative to the average fluorescence intensity per islet during the 6 mM glucose baseline period, before agonist addition. […]

[3] = tested on: INS-1 832/3 GIPR KO cells; assay: Insulin secretion assay, GIPR KO cells; format: cell-based, rat; settings: 100 nM, 11 mM glucose; n = 4
Procedure: At the end of the treatments, the supernatant containing the secreted insulin was collected, centrifuged at 1000g for 3 minutes, and transferred to a fresh tube. To determine total insulin content, cells were lysed using KRBH buffer + 1% w/v BSA + 1% v/v Triton X-100 (Sigma). The lysates were sonicated 3 × 10 seconds in a water bath sonicator and centrifuged at 10 000g for 10 minutes, and the supernatants collected. The samples were stored at −20 °C until the insulin concentration was determined using an Insulin Ultra-Sensitive HTRF Assay kit (62IN2PEG, Cisbio, Codolet, France) according to the manufacturer's instructions.
as §1

Chain of SNAP-tagged human GLP-1R (P43220 24-463): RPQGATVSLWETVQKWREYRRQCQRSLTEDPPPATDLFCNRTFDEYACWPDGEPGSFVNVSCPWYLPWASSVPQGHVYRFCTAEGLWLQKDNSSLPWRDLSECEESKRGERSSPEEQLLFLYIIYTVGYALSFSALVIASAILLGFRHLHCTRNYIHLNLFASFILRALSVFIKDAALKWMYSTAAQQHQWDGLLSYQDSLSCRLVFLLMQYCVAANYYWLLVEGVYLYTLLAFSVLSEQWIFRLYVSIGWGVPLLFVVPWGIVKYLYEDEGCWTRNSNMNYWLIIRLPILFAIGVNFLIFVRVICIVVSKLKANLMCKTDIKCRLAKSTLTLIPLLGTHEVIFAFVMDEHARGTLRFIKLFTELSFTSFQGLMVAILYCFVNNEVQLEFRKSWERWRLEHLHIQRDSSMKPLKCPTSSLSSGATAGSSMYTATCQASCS

Substance: GIP(1-42)
- GLP-1R internalization (SNAP-tagged human GLP-1R): negligible
- SNAP-GIPR colocalization with SNX27 (SNAP-tagged human GIPR): sustained
- GIPR responses for all readouts (Gαs, Gαq, Gαi, β-arrestin 2) compared with GLP-1R (GIPR-SmBiT; 30 minutes): markedly reduced for all readouts
- Gαs recruitment to the GIPR (GIPR-SmBiT): almost as low as those obtained for Gαi
- cAMP response, GIP compared with GLP-1, INS-1 832/3 [1]: near-significant increase; also recorded: tendency toward increased
- cAMP response, GIP compared with GLP-1, mouse islet beta cells [2]: a tendency replicated in primary mouse islet beta cells; also recorded: nonsignificant tendency toward increased cAMP
- Insulin secretion response in GIPR KO cells [3]: abolished
